These results are taken from patent US8877757B2, “Pyrazine derivatives and use as PI3K inhibitors” (Merck Serono SA, priority 2005, dated 2014).

For assay [1], the target named is Human recombinant GST-PI3δ (Homo sapiens (Human), UniProt O00329). In words: PI3K induced-lipid phosphorylation scintillation proximity assay (neomycin-coated SPA beads). In kind it is biochemical. From the text:
The efficacy of compounds of the invention in inhibiting the PI3K induced-lipid phosphorylation may be tested in the following binding assay.
The assay combines the scintillation proximity assay technology (SPA, Amersham) with the capacity of neomycin (a polycationic antibiotic) to bind phospholipids with high affinity and specificity. The Scintillation Proximity Assay is based on the properties of weakly emitting isotopes (such as ^3H, ^125I, ^33P). Coating SPA beads with neomycin allows the detection of phosphorylated lipid substrates after incubation with recombinant PI3K and radioactive ATP in the same well, by capturing the radioactive phospholipids to the SPA beads through their specific binding to neomycin.
To a 96 wells MTP containing 10 μl of the test compound of Formula (I) (solubilized in 10% DMSO; to yield a concentration of 100, 25, 5.0, 1.25, 0.312, 0.078, 0.0195, 0.00488, 0.00122 and 0.0003 μM of the test compound), the following assay components are added: 1) 10 μl of lipid micelles 2) 20 μl of Kinase buffer ([^33P]γ-ATP 162 μM/300 nCi, MgCl2 2.5 mM, DTT 2.5 mM, Na3VO4 25 μM in Hepes 40 mM, pH 7.4) and 3) 10 μl (100 ng) of Human recombinant GST-PI3δ (in Hepes 40 mM, pH 7.4, ethylenglycol 4%). After incubation at room temperature for 120 minutes, with gentle agitation, the reaction is stopped by addition of 200 μl of a solution containing 250 μg of neomycin-coated PVT SPA beads, ATP 60 mM and EDTA 6.2 mM in PBS. The assay is further incubated at room temperature for 60 minutes with gentle agitation to allow binding of phospholipids to neomycin-SPA beads. After precipitation of the neomycin-coated PVT SPA beads for 5 minutes at 1500×g, radioactive PtdIns(3)P is quantified by scintillation counting in a Wallac MicroBeta™ plate counter.
The values indicated in Table I below refer to the IC50 (μM) with respect to PI3K, i.e. the amount necessary to achieve 50% inhibition of said target. Said values show a considerable inhibitory potency of pyrazine compounds with regard to PI3K.

Assay [2] concerns Akt phosphorylation in B cells. The assay is described as follows: IgM-induced Akt phosphorylation in B cell (human PBMC, flow cytometry). To be noted: 5 min, CD19+ IgM+ B cells in human PBMC, anti IgM for 5 minutes, read-out: IC50, inhibition of IgM-induced Akt Phosphorylation. The format is cell-based. Here is the method:
Human PBMC were prepared from a Buffy coat (Geneve Hospital) after a Ficoll gradient (FICOLL-PAQUE Plus PHARMACIA ref: 17-1440-03).
Cell concentration was adjusted to 10^6 cells per ml in RPMI (GIBCO Ref: 72400-21) without serum. Before stimulation, 90 μl of PBMC suspension was incubated with 10 μl of diluted compound in a 96 well round bottom plate for 20 minutes at 37° C.
For B cell activation, 30 μl of Fab′2 Goat anti IgM (Jackson Immuno-research) at 10 μg/ml was added to each well. After 5 minutes, cell activation was stopped with 4% paraformaldehyde (10 minutes at room temperature).
Fixed PBMC were then treated for 20 minutes with 0.15% Triton, washed twice with PBS and permeabilized with 50% methanol for 15 minutes.
PBMC were washed twice in PBS, resuspended in: PBS-4% FCS and incubated with anti P-Akt (1/100 dilution) for one hour at room temperature.
After one wash, PBMC were further stained for 30 minutes with a mixture of anti-CD19-PE (BD Biosciences), anti-IgM-FITC (BD Biosciences) and goat anti rabbit IgG-Alexa 647 (Molecular probe).
After washing, PBMC (Peripheral Blood Mononuclear Cells) were analysed on a FACSCalibur instrument (BD Biosciences) equipped with a 633 helium-neon laser, or stored at 4° C. for further analysis. 510^3 B cells events were gathered per sample in the CD19 positive region.
For the analysis, a threshold was applied on P-Akt histogram of CD 19+ IgM+ lymphocytes cells from the non-stimulated samples and the percentage of cells above this threshold was determined for each sample.

For assay [3], the system named is PKB/Akt phosphorylation in mast cells. In words: SCF-induced PKB/Akt phosphorylation in mast cells. In kind it is cell-based, mice. The following applies: Mast cell, 0.25 h; mast cells derived from mouse bone marrow, 20 ng/mL SCF for 15 minutes; read-out: IC50, inhibition of SCF-induced Akt Phosphorylation. Here is the method: Protocol: Primary bone marrow cells were isolated from 4-8 weeks old wild type mice and derived to mast cells by incubation with medium containing 20 ng/mL of stem cell factor (SCF) (PeproTech, Switzerland) and 20 ng/mL of IL-3 (PeproTech, Switzerland) for at least 4 weeks. Confirmation of the expression of mast cell specific surface markers was done by FACS analysis using antibodies against c-kit (cKit-PE mouse antibody; Pharmingen). Cells were maintained in culture in the presence of SCF and IL-3. To induce PKB/Akt phosphorylation, mast cells were resuspended at 2.5×10^6 cells/mL and starved in medium containing no SCF or IL-3 for 24 h. After preincubation with compounds or 1% DMSO for 20 minutes, cells were activated with 20 ng/mL of SCF for 15 minutes at 37° C., fixed in 1.5% paraformaldehyde for 20 minutes and permeabilised with 0.2% Triton X-100 for 10 minutes, at room temperature. PKB/Akt phosphorylation was visualized using phospho-Ser-473 specific Akt antibodies (Cell Signaling) and standard FACS protocols.

The test system of the next assay is Female Balb/c mice. The assay is described as follows: Passive cutaneous anaphylaxis (PCA). In kind it is in vivo. To be noted: 30 mg/kg oral route, 2 hours before challenge. Here is the method:
Female Balb/c mice (Elevage Janvier) (8 week old) were intradermally injected by anti-DNP IgE (50 ng in 20 μl, id, 2 sites of injection) on their shaved backs. Twenty four hours later they received an intravenous injection of DNP-human serum albumin (50 μg/mouse) and Evans blue (25 mg/kg) by retroorbital injection. Thirty minutes later, the animals were sacrificed. The skin of the back was removed. The extravasated dye (punch diameter: 5 mm) was extracted from 2 punches by 0.4 ml of formamide and was quantified by fluorescence (E1: 585 nm, E2: 660 nm).
Inhibitors are administered by oral route at the dose of 30 mg/kg 2 hours before the challenge of DNP-human serum albumin and Evans blue.

For a further assay, the system named is Class I PI3-kinases. The following applies: Fruman et al., 1998; read-out: IC50 against each of the various Class I PI3-kinases; cited from earlier work.

Sequence of Human recombinant GST-PI3δ (O00329 whole entry): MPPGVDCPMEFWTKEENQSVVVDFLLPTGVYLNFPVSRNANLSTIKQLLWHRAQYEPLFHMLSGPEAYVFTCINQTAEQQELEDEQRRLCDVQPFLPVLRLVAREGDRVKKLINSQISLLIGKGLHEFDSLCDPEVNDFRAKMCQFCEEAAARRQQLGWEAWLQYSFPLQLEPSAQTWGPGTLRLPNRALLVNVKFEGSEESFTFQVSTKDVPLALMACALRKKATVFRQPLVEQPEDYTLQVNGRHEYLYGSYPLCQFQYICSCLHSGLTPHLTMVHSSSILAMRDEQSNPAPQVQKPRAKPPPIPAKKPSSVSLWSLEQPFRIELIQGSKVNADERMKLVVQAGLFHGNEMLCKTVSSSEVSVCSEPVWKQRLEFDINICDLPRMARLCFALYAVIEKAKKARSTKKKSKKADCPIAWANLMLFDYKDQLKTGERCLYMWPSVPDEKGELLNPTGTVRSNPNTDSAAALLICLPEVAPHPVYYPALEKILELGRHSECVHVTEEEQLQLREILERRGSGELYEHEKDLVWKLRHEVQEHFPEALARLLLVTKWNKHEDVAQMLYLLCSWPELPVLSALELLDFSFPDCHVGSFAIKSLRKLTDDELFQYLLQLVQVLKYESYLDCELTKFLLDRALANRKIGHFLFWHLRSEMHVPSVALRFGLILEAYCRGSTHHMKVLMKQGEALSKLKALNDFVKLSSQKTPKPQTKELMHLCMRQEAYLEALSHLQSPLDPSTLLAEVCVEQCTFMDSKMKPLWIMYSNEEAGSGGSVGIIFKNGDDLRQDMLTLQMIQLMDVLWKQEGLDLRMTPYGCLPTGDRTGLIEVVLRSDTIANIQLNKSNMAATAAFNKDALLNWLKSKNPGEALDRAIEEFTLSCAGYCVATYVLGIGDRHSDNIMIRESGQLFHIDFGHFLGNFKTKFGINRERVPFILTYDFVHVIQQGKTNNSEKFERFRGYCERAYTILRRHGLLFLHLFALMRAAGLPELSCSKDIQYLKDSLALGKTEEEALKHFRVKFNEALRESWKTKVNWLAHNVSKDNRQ

Take `COc1ccc(OC)c(Nc2nc3ccccc3nc2NS(=O)(=O)c2cccc(C#N)c2)c1` [Example 11, 3-Cyano-N-{3-[(2,5-dimethoxyphenyl)amino]quinoxalin-2-yl}benzene sulfonamide]: the IC50 in assay [1] was 430 nM.
For the compound `COc1ccc(OC)c(Nc2nc3ccccc3nc2NS(=O)(=O)c2cn(C)cn2)c1` [Example 13, N-{3-[(2,5-dimethoxyphenyl)amino]quinoxalin-2-yl}-1-methyl-1H-imidazole-4-sulfonamide], the half-maximal inhibitory concentration (IC50) in assay [1] came out at 80 nM; in assay [2], 30 nM.
`COc1cc(Nc2nc3ccccc3nc2NS(=O)(=O)c2cn(C)cn2)cc(OC)c1` [Example 20, N-{3-[(3,5-dimethoxyphenyl)amino]quinoxalin-2-yl}-1-methyl-1H-imidazole-4-sulfonamide]: the half-inhibitory concentration (IC50) amounted to 410 nM in assay [3] and 24 nM in assay [2].
Take `COc1ccc(OC)c(Nc2nc3ccccc3nc2NS(=O)(=O)c2ccc3c(c2)sc(=O)n3C)c1` [Example 29, N-{3-[(2,5-dimethoxyphenyl)amino]quinoxalin-2-yl}-3-methyl-2-oxo-2,3-dihydro-1,3-benzothiazole-6-sulfonamide]: the IC50 in assay [1] worked out at 240 nM.
On to `COc1cc(Nc2nc3ccccc3nc2NS(=O)(=O)c2ccccc2Cl)cc(OC)c1` [Example 38, 2-chloro-N-{3-[(3,5-dimethoxyphenyl)amino]quinoxalin-2-yl}benzene sulfonamide], for which the figures for the IC50 in assay [3] and in assay [2] were 1890 nM and 40 nM, respectively.
The matching figures for `COc1cc(Nc2nc3ccccc3nc2NS(=O)(=O)c2ccc(C#N)cc2)cc(OC)c1` [Example 39, 4-cyano-N-{3-[(3,5-dimethoxyphenyl)amino]quinoxalin-2-yl}benzene sulfonamide]: 350 nM and 11 nM.
Turning to `COc1ccc(OC)c(Nc2nc3ccccc3nc2NS(=O)(=O)c2cccnc2)c1` [Example 65, N-{3-[(2,5-dimethoxyphenyl)amino]quinoxalin-2-yl}pyridine-3-sulfonamide], the results for the IC50 in assay [1], in assay [3] and in assay [2] were 56 nM, 1190 nM and 21 nM, respectively. The “inhibition of vascular permeability” value with Female Balb/c mice was determined as 84%.
For `COc1ccc(OC)c(Nc2nc3ncccc3nc2NS(=O)(=O)c2ccccc2)c1` [Example 86, N-{3-[(2,5-dimethoxyphenyl)amino]pyrido[2,3-b]pyrazin-2-yl}benzene sulfonamide], the IC50 in assay [1] was 73 nM.
Turning to `COc1cc(Nc2nc3ccccc3nc2NS(=O)(=O)c2ccc(CN3CCN(C)CC3)cc2)cc(OC)c1` [Example 130, N-{3-[(3,5-dimethoxyphenyl)amino]quinoxalin-2-yl}-4-[(4-methylpiperazin-1-yl)methyl]benzenesulfonamide], the half-maximal inhibitory concentration (IC50) is 130 nM in assay [3] and 60 nM in assay [2].
The matching figures for `COc1ccc(OC)c(Nc2nc3ccccc3nc2NS(=O)(=O)c2ccc(CN)cc2)c1` [Example 131, 4-(aminomethyl)-N-{3-[(2,5-dimethoxyphenyl)amino]quinoxalin-2-yl}benzenesulfonamide]: 150 nM and 13 nM.
The matching figures for `COc1cc(Nc2nc3ccccc3nc2NS(=O)(=O)c2ccc(CN3CCOCC3)cc2)cc(OC)c1` [Example 136, N-{3-[(3,5-dimethoxyphenyl)amino]quinoxalin-2-yl}-4-(morpholin-4-ylmethyl)benzenesulfonamide]: 1220 nM and 370 nM.
For `COc1cc(Nc2nc3ccccc3nc2NS(=O)(=O)c2cccc(CN3CCN(C)CC3)c2)cc(OC)c1` [Example 137, N-{3-[(3,5-dimethoxyphenyl)amino]quinoxalin-2-yl}-3-[(4-methylpiperazin-1-yl)methyl]benzenesulfonamide], in that order: 400 nM and 40 nM.
Consider `COc1cc(Nc2nc3ccccc3nc2NS(=O)(=O)c2ccc(CN(C)C)cc2)cc(OC)c1` [Example 138, N-{3-[(3,5-dimethoxyphenyl)amino]quinoxalin-2-yl}-4-[(dimethylamino)methyl]benzenesulfonamide], for which the values for the IC50 in assay [1], in assay [3] and in assay [2] were 27 nM, 180 nM and 16 nM, respectively.
With `COc1cc(Nc2nc3ccccc3nc2NS(=O)(=O)c2cccc(CN(C)C)c2)cc(OC)c1` [Example 139, N-{3-[(3,5-dimethoxyphenyl)amino]quinoxalin-2-yl}-3-[(dimethylamino)methyl]benzenesulfonamide], the half-inhibitory concentration (IC50) in assay [3] stood at 270 nM; in assay [2], 27 nM.
As to `COc1cc(Nc2nc3ccccc3nc2NS(=O)(=O)c2cccc(C(=O)NCCCN(C)C)c2)cc(OC)c1` [Example 144, 3-[({3-[(3,5-dimethoxyphenyl)amino]quinoxalin-2-yl}amino)sulfonyl]-N-[3-(dimethylamino)propyl]benzamide], the half-inhibitory concentration (IC50) in assay [1] amounted to 30 nM.
Take `COc1cc(Nc2nc3ccccc3nc2NS(=O)(=O)c2ccc(CN)s2)cc(OC)c1` [Example 150, 5-(aminomethyl)-N-{3-[(3,5-dimethoxyphenyl)amino]quinoxalin-2-yl}thiophene-2-sulfonamide]: the IC50 in assay [3] turned out to be 90 nM; in assay [2] it was 7 nM.
Take `COC[C@H]1OC(=O)c2coc3c2[C@@]1(C)C1=C(C3=O)[C@@H]2CCC(=O)[C@@]2(C)C[C@H]1OC(C)=O` [Wortmannin]: the IC50 with Class I PI3-kinases was 1 to 10 nM.

The term IC50 denotes the midpoint of a concentration-inhibition curve.
